Results: ChEMBL document CHEMBL1201862, “PubChem BioAssay data set” (2004)
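Growth conditions: 96-well plates. Treatment: test compound, 48 hours, 5 concentrations. Analysis: linear interpolation between bracketing concentrations; unreached endpoints set to highest concentration. Here, GI50 denotes the concentration required for 50% inhibition of growth.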 Calls of active or inactive are those of the source. Rule as the data show it: active = GI50 up to about 1.1 µM and inactive = higher.

Columns and labels:
Assay in all cases: NCI-60 cell line screen, 48 h
RPMI-8226 = tested on: RPMI-8226
T47D = tested on: T47D
SK-OV-3 = tested on: SK-OV-3
PC-3 = tested on: PC-3
HCC 2998 = tested on: HCC 2998
EKVX = tested on: EKVX
NCI/ADR-RES = tested on: NCI/ADR-RES
SK-MEL-5 = tested on: SK-MEL-5
KM12 = tested on: KM12
CAKI-1 = tested on: CAKI-1
RXF 393 = tested on: RXF 393
786-0 = tested on: 786-0
ACHN = tested on: ACHN
COLO 205 = tested on: COLO 205
MDA-N = tested on: MDA-N
NCI-H460 = tested on: NCI-H460
SF-268 = tested on: SF-268
UO-31 = tested on: UO-31
A549 = tested on: A549
NCI-H522 = tested on: NCI-H522

Measured: GI50

NS(=O)(=O)c1ccc(NC(=O)N/N=C/c2ccccc2[N+](=O)[O-])cc1
inactive: RPMI-8226 30.3 µM | T47D 57.4 µM | SK-OV-3 45.5 µM | PC-3 35.6 µM | HCC 2998 33.9 µM | EKVX 61 µM | NCI/ADR-RES 33.3 µM | SK-MEL-5 65.5 µM | KM12 36 µM | CAKI-1 44.8 µM | RXF 393 > 100 µM | 786-0 45.6 µM | ACHN 66.7 µM | COLO 205 38.4 µM | MDA-N 19.4 µM | NCI-H460 > 100 µM | SF-268 56.6 µM | UO-31 41 µM | A549 > 100 µM | NCI-H522 41.8 µM

O=C(/C=C/c1ccccc1)/C=N/N1C(=S)N(c2ccccc2)C(=N\c2ccccc2)/C1=N/c1ccccc1
inactive: RPMI-8226 > 100 µM | T47D > 100 µM | SK-OV-3 > 100 µM | PC-3 > 100 µM | HCC 2998 > 100 µM | EKVX > 100 µM | NCI/ADR-RES > 100 µM | SK-MEL-5 > 100 µM | KM12 > 100 µM | CAKI-1 > 100 µM | RXF 393 38.8 µM | 786-0 > 100 µM | ACHN > 100 µM | COLO 205 > 100 µM | MDA-N 82.4 µM | NCI-H460 58.7 µM | SF-268 > 100 µM | UO-31 > 100 µM | A549 > 100 µM | NCI-H522 11.2 µM

CCOC(=O)C1=C(N)N2C(=N[C@H]3CCCC[C@@H]32)N=C1
inactive: RPMI-8226 > 100 µM | T47D > 100 µM | SK-OV-3 > 100 µM | PC-3 > 100 µM | HCC 2998 > 100 µM | EKVX > 100 µM | NCI/ADR-RES > 100 µM | SK-MEL-5 > 100 µM | KM12 > 100 µM | CAKI-1 > 100 µM | RXF 393 > 100 µM | 786-0 > 100 µM | ACHN > 100 µM | COLO 205 > 100 µM | MDA-N > 100 µM | NCI-H460 > 100 µM | SF-268 > 100 µM | UO-31 > 100 µM | A549 > 100 µM | NCI-H522 > 100 µM

C1=N\c2ccc(cc2)-c2ccc(cc2)/N=C\c2ccccc2OCc2cccc(n2)COc2ccccc2/1
inactive: RPMI-8226 > 100 µM | T47D > 54 µM | SK-OV-3 30.1 µM | PC-3 > 100 µM | HCC 2998 > 100 µM | EKVX 36.4 µM | NCI/ADR-RES > 100 µM | SK-MEL-5 > 31.2 µM | KM12 > 100 µM | CAKI-1 > 58.5 µM | RXF 393 15.2 µM | 786-0 9.38 µM | ACHN 21.3 µM | COLO 205 > 100 µM | MDA-N > 100 µM | NCI-H460 71.6 µM | SF-268 20.6 µM | UO-31 > 60.7 µM | A549 72.8 µM | NCI-H522 23.8 µM

O=C(O)c1ccccc1CC(Cc1ccccc1)C(=O)O (stereo not given)
inactive: RPMI-8226 > 100 µM | T47D > 100 µM | SK-OV-3 > 100 µM | PC-3 > 100 µM | HCC 2998 > 100 µM | EKVX > 100 µM | NCI/ADR-RES > 100 µM | SK-MEL-5 > 100 µM | KM12 > 100 µM | CAKI-1 > 100 µM | RXF 393 > 100 µM | 786-0 > 100 µM | ACHN > 100 µM | COLO 205 > 100 µM | MDA-N > 100 µM | NCI-H460 > 100 µM | SF-268 97.1 µM | UO-31 > 100 µM | A549 > 100 µM | NCI-H522 > 100 µM
